Consider eleven compounds from patent US20240150293A1, “SPIROCYCLOHEXANE DERIVATIVES, PHARMACEUTICAL COMPOSITIONS CONTAINING THEM AND THEIR USES AS ANTI-APOPTOTIC INHIBITORS” (LES LABORATOIRES SERVIER, priority 2021, published 2024).

Molecules are shown by their SMILES. Read-outs that look alike come from different tables or passages of the source.

As a reminder, the Ki is a measure of affinity in units of concentration, obtained from inhibition or displacement.

The target in test [1] is Cy5-labelled Mcl1 (amino acids 171-321) C286S protein (UniProtKB Q07820) (Homo sapiens (Human), UniProt Q07820, C286S). As to the kind of experiment: Inhibition of Mcl-1 by the fluorescence quenching assay (Example A, Method B). It counts as binding. Summed up: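 Cy5-labelled Mcl1 171-321 C286S (1 nM) quenched by TQ5WS-labelled PUMA peptide (10, 20 or 400 nM); displacement raises fluorescence (Ex 620/Em 680 nm). Buffer 10 mM HEPES, 150 mM NaCl, 0.05% Tween 20, pH 7.4, 5% DMSO; 2 h at room temperature, 11-point curves, IC50 converted to Ki (cKi/eKi).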

Test [2] concerns NCI-H929 cell lines. As to the kind of experiment: In vitro cytotoxicity, CellTiter-Glo (CTG) assay (Example B, Method B). It counts as cell-based. The settings on record: Homo sapiens, NCI-H929, 48 h, NCI-H929 cells, 48 h incubation, read-out: C50. Put shortly: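 NCI-H929 cells exposed to an 11-point compound series from 10 mM DMSO stocks (top final 30 μM) for 48 h at 37° C., 5% CO2. Viability measured as ATP by CellTiter-Glo luminescence; C50 is the concentration giving 50% cellular viability.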
Background: Cellular ATP, detected with luciferase, serves as a proxy for viable cell number.

In test [3] the test system is AMO-1 multiple myeloma xenografts. As to the kind of experiment: Anti-tumor activity in vivo (Example D). Details: species or system SCID mice. How it is done:
The anti-tumor activity of the compounds of the invention was evaluated using AMO-1 multiple myeloma xenografts.
1×10^7 cells were subcutaneously grafted into immunosuppressed SCID mice. 7-10 days later, when the tumor mass had reached an average volume of about 150 mm^3, mice were treated with the various compounds once a week for 2 weeks (per os, HEC 1%/Tween 80 99:1). Tumor size was measured three times per week using electronic calipers.
At the end of the treatment cycle (d9), tumor growth inhibition (TGI) was calculated using the formula: […]
wherein DTV (Delta Tumor Volume) at Dx was calculated as follows: […]
(Tumor Volume at Dx)−(Tumor Volume at Randomization).

In test [4] the test system is H929 multiple myeloma tumor line. As to the kind of experiment: In vitro cytotoxicity, MTT assay (Example B, Method A). It counts as cell-based. The conditions noted are these: Homo sapiens, NCI-H929, 48 h, H929 cells, 48 hours exposure, read-out: C50. As to the method: The cytotoxicity studies were carried out on the H929 multiple myeloma tumor line.
The cells are distributed onto microplates and exposed to the test compounds for 48 hours. The cell viability is then quantified by a colorimetric assay, the Microculture Tetrazolium Assay (Carmichael et al, Cancer Res. 1987, 47, 939-942).
The results are expressed in C50 which means concentration corresponding to […] of effect/inhibition.

In test [5] the test system is AMO-1 multiple myeloma xenograft. As to the kind of experiment: Quantification of the cleaved form of PARP in vivo, per os (Example C). Also on record: species or system SCID mice. The settings on record: single dose per os, tumors recovered 16 hours after dosing. How it is done: The ability of the compounds of the invention to induce apoptosis was evaluated in vivo using the AMO-1 multiple myeloma xenograft.
1×10^7 cells were subcutaneously grafted into immunosuppressed SCID mice. 12-14 days later, when tumors had reached the appropriate volume, mice (3 per group) were treated once with the various compounds (per os, HEC 1%/Tween 80 99:1). Tumor samples were recovered 16 hours after dosing and lysed. Cleared lysates were used for cleaved PARP quantification (as a marker of apoptosis induction) using the Meso Scale Discovery (MSD) Elisa platform test. Results are expressed as the ratio between cleaved PARP in treated mice over control mice.

The mark [6] stands for this setting: 30 mpk per os once a week for 2 weeks.
The mark [7] stands for this setting: 60 mpk per os once a week for 2 weeks.
Setting [8] is: 120 mpk per os once a week for 2 weeks.

Sequence of Cy5-labelled Mcl1 (amino acids 171-321) C286S protein (Q07820 171-321 C286S): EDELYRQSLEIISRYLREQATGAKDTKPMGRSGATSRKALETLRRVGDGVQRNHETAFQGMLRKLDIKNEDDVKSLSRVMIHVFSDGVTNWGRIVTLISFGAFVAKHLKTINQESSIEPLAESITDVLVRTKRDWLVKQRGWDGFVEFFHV

For the compound `C[C@@H](COc1ccnc2c1[C@H](C)CCC2)CN1Cc2cc(F)ccc2[C@]12CC[C@@](Nc1cccc(Cl)c1)(C(=O)O)CC2` [Example 41, (1s,4S)-4-(3-chloroanilino)-5′-fluoro-2′-[(2R)-2-methyl-3-{[(5R)-5-methyl-5,6,7,8-tetrahydroquinolin-4-yl]oxy}propyl]-2′,3′-dihydrospiro[cyclohexane-1,1′-isoindole]-4-carboxylic acid], the Ki in test [1] (Ki determined from IC50) was determined as 355 pM. The IC50 in test [2] was found to be 115000 pM. The figures for the “% TGI (d9)” value in test [3] (setting [6]), in test [3] (setting [7]) and in test [3] (setting [8]) were 1%, 7.4% and 66.8%, respectively.

In the case of `C[C@@H](COc1ccnc2c1[C@H](C)CCC2)CN1Cc2cc(F)ccc2[C@]12CC[C@@](Nc1ccc(F)c(Cl)c1)(C(=O)O)CC2` [Example 42, (1s,4S)-4-(3-chloro-4-fluoroanilino)-5′-fluoro-2′-[(2R)-2-methyl-3-{[(5R)-5-methyl-5,6,7,8-tetrahydroquinolin-4-yl]oxy}propyl]-2′,3′-dihydrospiro[cyclohexane-1,1′-isoindole]-4-carboxylic acid], in test [1] (Ki determined from IC50), the Ki is 294 pM. In addition, the IC50 in test [4] stood at 33900 pM. Also, the “Cleaved PARP (fold to control)” value in test [5] (120 mpk) is listed as 5 fold to control. The “% TGI (d9)” value in test [3] (setting [7]) is recorded as 25.8%; in test [3] (setting [8]) it was 114.1%.

Regarding `C[C@@H](COc1ccnc2c1[C@H](C)CCC2)CN1Cc2cc3c(cc2[C@]12CC[C@@](Nc1cccc(Cl)c1)(C(=O)O)CC2)OCO3` [Example 44, (1s,4S)-4-(3-chloroanilino)-6′-[(2R)-2-methyl-3-{[(5R)-5-methyl-5,6,7,8-tetrahydroquinolin-4-yl]oxy}propyl]-6′,7′-dihydro-2′H-spiro[cyclohexane-1,5′-[1,3]dioxolo[4,5-f]isoindole]-4-carboxylic acid], in test [1] (Ki determined from IC50), the Ki is 126 pM. The IC50 in test [2] came to 53400 pM. The “Cleaved PARP (fold to control)” value in test [5] (30 mpk) is 0.7 fold to control; in test [5] (60 mpk), 0.7 fold to control; in test [5] (120 mpk) it was 1.4 fold to control.

Take `Cc1c(Cl)cccc1N[C@]1(C(=O)O)CC[C@]2(CC1)c1ccccc1C[C@@H]2C[C@@H](C)COc1ccnc2c1[C@H](C)CCC2` [Example 708, (1r,2′S,4S)-4-(3-chloro-2-methylanilino)-2′-[(2R)-2-methyl-3-{[(5R)-5-methyl-5,6,7,8-tetrahydroquinolin-4-yl]oxy}propyl]-2′,3′-dihydrospiro[cyclohexane-1,1′-indene]-4-carboxylic acid]: the Ki in test [1] is 362 pM. Further, the IC50 in test [2] stood at 107000 pM. Moreover, the “Cleaved PARP (fold to control)” value in test [5] (120 mpk) is given as 12.6 fold to control.

For the compound `C[C@@H](COc1ccnc2c1[C@H](C)CCC2)C[C@H]1Cc2cc(F)ccc2[C@]12CC[C@@](Nc1cccc(Cl)c1)(C(=O)O)CC2` [Example 768, (1r,2′S,4S)-4-(3-chloroanilino)-5′-fluoro-2′-[(2R)-2-methyl-3-{[(5R)-5-methyl-5,6,7,8-tetrahydroquinolin-4-yl]oxy}propyl]-2′,3′-dihydrospiro[cyclohexane-1,1′-indene]-4-carboxylic acid], in test [1], the Ki turned out to be 109 pM. The IC50 in test [2] was 49600 pM. The “Cleaved PARP (fold to control)” value is 0.8 fold to control in test [5] (30 mpk), 15.4 fold to control in test [5] (60 mpk) and 30.3 fold to control in test [5] (120 mpk).

As for `COc1ccc2c(c1)[C@]1(CC[C@@](Nc3cccc(Cl)c3)(C(=O)O)CC1)[C@@H](C[C@@H](C)COc1ccnc3c1[C@H](C)CCC3)C2` [Example 781, (1r,2′S,4S)-4-(3-chloroanilino)-6′-methoxy-2′-[(2R)-2-methyl-3-{[(5R)-5-methyl-5,6,7,8-tetrahydroquinolin-4-yl]oxy}propyl]-2′,3′-dihydrospiro[cyclohexane-1,1′-indene]-4-carboxylic acid], the Ki in test [1] came out at 234 pM. Moreover, the IC50 in test [2] was determined as 82300 pM. Also, the figures for the “Cleaved PARP (fold to control)” value in test [5] (30 mpk) and in test [5] (60 mpk) were 11.6 fold to control and 4.5 fold to control, respectively. The “% TGI (d9)” value is recorded as 76.4% in test [3] (setting [6]) and 107.8% in test [3] (setting [7]).

`CC(C)Oc1ccc2c(c1)[C@]1(CC[C@@](Nc3cccc(Cl)c3)(C(=O)O)CC1)[C@@H](C[C@@H](C)COc1ccnc3c1[C@H](C)CCC3)C2` [Example 786, (1r,2′S,4S)-4-(3-chloroanilino)-2′-[(2R)-2-methyl-3-{[(5R)-5-methyl-5,6,7,8-tetrahydroquinolin-4-yl]oxy}propyl]-6′-[(propan-2-yl)oxy]-2′,3′-dihydrospiro[cyclohexane-1,1′-indene]-4-carboxylic acid]: the Ki in test [1] is 80.3 pM. Also, the IC50 in test [2] worked out at 77200 pM. In addition, the “% TGI (d9)” value in test [3] (setting [6]) was determined as 43.2%; in test [3] (setting [7]), 98.9%.

Take `COCCOc1ccc2c(c1)[C@]1(CC[C@@](Nc3cccc(Cl)c3)(C(=O)O)CC1)[C@@H](C[C@@H](C)COc1ccnc3c1[C@H](C)CCC3)C2` [Example 794, (1r,2′S,4S)-4-(3-chloroanilino)-6′-(2-methoxyethoxy)-2′-[(2R)-2-methyl-3-{[(5R)-5-methyl-5,6,7,8-tetrahydroquinolin-4-yl]oxy}propyl]-2′,3′-dihydrospiro[cyclohexane-1,1′-indene]-4-carboxylic acid]: in test [1], the Ki was determined as 213 pM. Besides, in test [2], the IC50 came out at 44500 pM. Moreover, the “Cleaved PARP (fold to control)” value in test [5] (60 mpk) was 6.8 fold to control; in test [5] (120 mpk), 12.1 fold to control. Moreover, the “% TGI (d9)” value was 70.2% in test [3] (setting [7]) and 51.5% in test [3] (setting [8]).

For `COc1cc2c(cc1Cl)C[C@H](C[C@@H](C)COc1ccnc3c1[C@H](C)CCC3)[C@]21CC[C@](Nc2cccc(Cl)c2)(C(=O)O)CC1` [Example 815, (1r,2′S,4S)-5′-chloro-4-(3-chloroanilino)-6′-methoxy-2′-[(2R)-2-methyl-3-{[(5R)-5-methyl-5,6,7,8-tetrahydroquinolin-4-yl]oxy}propyl]-2′,3′-dihydrospiro[cyclohexane-1,1′-indene]-4-carboxylic acid], the Ki in test [1] was 251 pM. Moreover, the IC50 in test [2] is 87700 pM. Also, the “Cleaved PARP (fold to control)” value is listed as 2.3 fold to control in test [5] (60 mpk) and 4.6 fold to control in test [5] (120 mpk). Besides, the “% TGI (d9)” value in test [3] (setting [7]) stood at 18.7%; in test [3] (setting [8]), 66.8%.

As to `C[C@@H](COc1ccnc2c1[C@H](C)CCC2)C[C@H]1Cc2cc3c(cc2[C@]12CC[C@@](Nc1cccc(Cl)c1)(C(=O)O)CC2)OCCO3` [Example 838, (1r,4S,7′S)-4-(3-chloroanilino)-7′-[(2R)-2-methyl-3-{[(5R)-5-methyl-5,6,7,8-tetrahydroquinolin-4-yl]oxy}propyl]-2′,3′,7′,8′-tetrahydrospiro[cyclohexane-1,6′-indeno[5,6-b][1,4]dioxine]-4-carboxylic acid], the Ki in test [1] worked out at 33.7 pM. For the same compound, in test [2], the IC50 is 21600 pM. Moreover, the “Cleaved PARP (fold to control)” value in test [5] (30 mpk) is given as 15 fold to control; in test [5] (60 mpk), 7.8 fold to control. Further, the “% TGI (d9)” value in test [3] (setting [7]) is given as 129.2%.

On to `COC(C)(C)c1ccc2c(c1)[C@]1(CC[C@@](Nc3cccc(Cl)c3)(C(=O)O)CC1)[C@@H](C[C@@H](C)COc1ccnc3c1[C@H](C)CCC3)C2` [Example 866, (1r,2′S,4S)-4-(3-chloroanilino)-6′-(2-methoxypropan-2-yl)-2′-[(2R)-2-methyl-3-{[(5R)-5-methyl-5,6,7,8-tetrahydroquinolin-4-yl]oxy}propyl]-2′,3′-dihydrospiro[cyclohexane-1,1′-indene]-4-carboxylic acid], for which the Ki in test [1] was 21.3 pM. In addition, the figures for the “Cleaved PARP (fold to control)” value in test [5] (30 mpk), in test [5] (60 mpk) and in test [5] (120 mpk) were 1.2 fold to control, 6.5 fold to control and 6.3 fold to control, respectively.
